Drawing on patent US10576062B2, “Carbamoyloxymethyl triazole cyclohexyl acids as LPA antagonists” (Bristol-Myers Squibb Company, priority 2016, dated 2020), this text covers IC50 for 26 compounds.

The test addresses T1, human LPA1 (Homo sapiens, UniProt Q92633).
T1 construct: expressed in transfected cells; host or cells: Chinese hamster ovary (CHO) cells
As to the kind of experiment: LPA1 functional antagonist assay (LPA-induced calcium flux). The format is cell-based. Particulars: read-out: hLPA1 IC50. In a few lines:
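CHO cells overexpressing human LPA1, loaded with calcium dye 30 min at 37° C, were preincubated 20 min at room temperature with compound (0.08 nM–5 μM, 0.5% DMSO) in HBSS/20 mM HEPES/0.1% fatty acid-free BSA.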
A general note: A change in cytosolic calcium serves as a functional read-out for many receptors and channels.

Setting [1] is: CHO cells overexpressing human LPA1, inhibition of calcium flux induced by 10 nM LPA.

Where two headings read alike, the source gives them in different places.

T1 sequence (Q92633 whole entry): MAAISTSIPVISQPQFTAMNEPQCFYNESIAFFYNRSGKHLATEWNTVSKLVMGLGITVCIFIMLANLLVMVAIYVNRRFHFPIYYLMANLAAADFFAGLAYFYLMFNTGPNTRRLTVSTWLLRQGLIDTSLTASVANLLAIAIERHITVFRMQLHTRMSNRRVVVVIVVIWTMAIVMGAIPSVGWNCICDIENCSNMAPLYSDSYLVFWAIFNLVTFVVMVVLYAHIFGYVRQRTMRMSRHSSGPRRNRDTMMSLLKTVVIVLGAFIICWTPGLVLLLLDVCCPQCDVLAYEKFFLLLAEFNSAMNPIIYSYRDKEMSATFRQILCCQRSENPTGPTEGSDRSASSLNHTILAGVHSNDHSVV

For the compound `CN(C(=O)OCc1c(-c2ccc(O[C@H]3CCC[C@H](C(=O)O)C3)cn2)nnn1C)C1CCC1` [Example 174, (1S,3S)-3-((6-(5-(((cyclobutyl(methyl)carbamoyl)oxy)methyl)-1-methyl-1H-1,2,3-triazol-4-yl)pyridin-3-yl)oxy)cyclohexane-1-carboxylic acid], for the setting “human LPA1”, the IC50 (commonly the midpoint of a concentration-inhibition curve) amounted to 58 nM.
As to `CCc1nc(-c2nnn(C)c2COC(=O)N(C)CCC(C)C)ccc1O[C@H]1CCC[C@H](C(=O)O)C1` [Example 208, (1S,3S)-3-((2-ethyl-6-(5-(((isopentyl(methyl)carbamoyl)oxy)methyl)-1-methyl-1H-1,2,3-triazol-4-yl)pyridin-3-yl)oxy)cyclohexane-1-carboxylic acid], the IC50 under setting [1] was 26 nM.
On to `CN(CCC(C)(C)F)C(=O)OCc1c(-c2ccc(O[C@H]3CCC[C@H](C(=O)O)C3)cn2)nnn1C` [Example 188, (1S,3S)-3-((6-(5-((((3-fluoro-3-methylbutyl)(methyl)carbamoyl)oxy)methyl)-1-methyl-1H-1,2,3-triazol-4-yl)pyridin-3-yl)oxy)cyclohexane-1-carboxylic acid], for which, where the note is “human LPA1”, the IC50 turned out to be 32 nM.
As for `Cc1nc(-c2nnn(C)c2COC(=O)N(C)C2CC23CCC3)ccc1O[C@H]1CCC[C@@H](C(=O)O)C1` (stereo partly drawn) [Example 146, (1R,3S)-3-((2-methyl-6-(1-methyl-5-(((methyl(spiro[2.3]hexan-1-yl)carbamoyl)oxy)methyl)-1H-1,2,3-triazol-4-yl)pyridin-3-yl)oxy)cyclohexane-1-carboxylic acid], the IC50 worked out at 1820 nM.
The same measure, in the same setting: next, `Cc1nc(-c2nnn(C)c2COC(=O)N(C)C2CCCC2)ccc1O[C@H]1CCC[C@](F)(C(=O)O)C1` (racemic) [Example 88]: 32 nM; `Cc1nc(-c2nnn(C)c2COC(=O)N(C)C2CC2)ccc1O[C@H]1CCC[C@H](C(=O)O)C1` [Example 142, (1S,3S)-3-((6-(5-(((cyclopropyl(methyl)carbamoyl)oxy)methyl)-1-methyl-1H-1,2,3-triazol-4-yl)-2-methylpyridin-3-yl)oxy)cyclohexane-1-carboxylic acid]: 252 nM.
As for `Cc1nc(-c2nnn(C)c2CCCOC(=O)N(C)Cc2ccccc2)ccc1O[C@H]1CCC[C@H](C(=O)O)C1` [Example 249, (1S,3S)-3-((6-(5-(3-((Benzyl(methyl)carbamoyl)oxy)propyl)-1-methyl-1H-1,2,3-triazol-4-yl)-2-methylpyridin-3-yl)oxy)cyclohexane-1-carboxylic Acid], under setting [1], the IC50 was found to be 122 nM.
`CCCCN(C)C(=O)OCc1c(-c2ccc(O[C@H]3CCC[C@H](C(=O)O)C3)c(F)c2)nnn1C` [Example 46, (1S,3S)-3-(4-(5-(((butyl(methyl)carbamoyl)oxy)methyl)-1-methyl-1H-1,2,3-triazol-4-yl)-2-fluorophenoxy)cyclohexane-1-carboxylic acid]: the IC50 worked out at 6 nM.
Same read-out and setting: under `CCCC(C)N(C)C(=O)OCc1c(-c2ccc(O[C@H]3CCC[C@H](C(=O)O)C3)c(F)c2)nnn1C` (mixture of isomers) [Example 28, (1S,3S)-3-(2-fluoro-4-(1-methyl-5-(((methyl(pentan-2-yl)carbamoyl)oxy)methyl)-1H-1,2,3-triazol-4-yl)phenoxy)cyclohexane-1-carboxylic acid] stands 25 nM.
Take `CCC1(N(C)C(=O)OCc2c(-c3ccc(O[C@H]4CCC[C@H](C(=O)O)C4)c(C)n3)nnn2C)CC1` [Example 131, (1S,3S)-3-((6-(5-((((1-ethylcyclopropyl)(methyl)carbamoyl)oxy)methyl)-1-methyl-1H-1,2,3-triazol-4-yl)-2-methylpyridin-3-yl)oxy)cyclohexane-1-carboxylic acid]: the IC50 came to 187 nM.
For the compound `CN(CC1CC1)C(=O)OCc1c(-c2ccc(O[C@H]3CCC[C@H](C(=O)O)C3)c(C(F)(F)F)n2)nnn1C` [Example 273, (1S,3S)-3-((6-(5-((((cyclopropylmethyl)(methyl)carbamoyl)oxy)methyl)-1-methyl-1H-1,2,3-triazol-4-yl)-2-(trifluoromethyl)pyridin-3-yl)oxy)cyclohexane-1-carboxylic acid], the IC50 under setting [1] amounted to 7 nM.
Turning to `Cc1nc(-c2nnn(C)c2CCOC(=O)N(C)C2CCCC2)ccc1O[C@H]1CCC[C@H](C(=O)O)C1` [Example 243, (1S,3S)-3-((6-(5-(2-((Cyclopentyl-(methyl)carbamoyl)oxy)ethyl)-1-methyl-1H-1,2,3-triazol-4-yl)-2-methylpyridin-3-yl)oxy)cyclohexane-1-carboxylic acid], under setting [1], the IC50 was 72 nM.
For `Cc1nc(-c2nnn(C)c2COC(=O)N(C)CCCF)ccc1O[C@H]1CCC[C@H](C(=O)O)C1` [Example 190, (1S,3S)-3-((6-(5-((((3-fluoropropyl)(methyl)carbamoyl)oxy)methyl)-1-methyl-1H-1,2,3-triazol-4-yl)-2-methylpyridin-3-yl)oxy)cyclohexane-1-carboxylic acid], the IC50 (human LPA1) stood at 81 nM.
On to `Cc1nc(-c2nnn(C)c2COC(=O)N(C)CC(C)F)ccc1O[C@H]1CCC[C@H](C(=O)O)C1` (stereo partly drawn) [Example 261, (1S,3S)-3-((6-(5-((((2-fluoropropyl)(methyl)carbamoyl)oxy)methyl)-1-methyl-1H-1,2,3-triazol-4-yl)-2-methylpyridin-3-yl)oxy)cyclohexane-1-carboxylic acid], for which the IC50 under setting [1] is 145 nM.
With `Cc1nc(-c2nnn(C)c2COC(=O)N(C)Cc2ccc(Cl)cc2)ccc1O[C@H]1CCC[C@H](C(=O)O)C1` [Example 35, (1S,3S)-3-((6-(5-((((4-chlorobenzyl)(methyl)carbamoyl)oxy)methyl)-1-methyl-1H-1,2,3-triazol-4-yl)-2-methylpyridin-3-yl)oxy)cyclohexane-1-carboxylic acid], the IC50 is 284 nM.
Regarding `CCCCN(CC)C(=O)OCc1c(-c2ccc(O[C@H]3CCC[C@H](C(=O)O)C3)c(C)n2)nnn1C` [Example 127, (1S,3S)-3-((6-(5-(((butyl(ethyl)carbamoyl)oxy)methyl)-1-methyl-1H-1,2,3-triazol-4-yl)-2-methylpyridin-3-yl)oxy)cyclohexane-1-carboxylic acid], the IC50 came out at 33 nM.
The same measure, in the same setting: next, `Cc1nc(-c2nnn(C)c2COC(=O)N(C)Cc2ccccn2)ccc1O[C@H]1CCC[C@H](C(=O)O)C1` [Example 118, (1S,3S)-3-((2-methyl-6-(1-methyl-5-(((methyl(pyridin-2-ylmethyl)carbamoyl)oxy)methyl)-1H-1,2,3-triazol-4-yl)pyridin-3-yl)oxy)cyclohexane-1-carboxylic acid]: 211 nM; `Cc1nc(-c2nnn(C)c2COC(=O)N(C)CCC(F)(F)F)ccc1O[C@H]1CCC[C@H](C(=O)O)C1` [Example 101, (1S,3S)-3-((2-methyl-6-(1-methyl-5-(((methyl(3,3,3-trifluoropropyl)carbamoyl)oxy)methyl)-1H-1,2,3-triazol-4-yl)pyridin-3-yl)oxy)cyclohexane-1-carboxylic acid]: 49 nM.
For `CN(C(=O)OCc1c(-c2ccc(O[C@H]3CCC[C@H](C(=O)O)C3)cn2)nnn1C)C1CC2(CCC2)C1` [Example 180, (1S,3S)-3-((6-(1-methyl-5-(((methyl(spiro[3.3]heptan-2-yl)carbamoyl)oxy)methyl)-1H-1,2,3-triazol-4-yl)pyridin-3-yl)oxy)cyclohexane-1-carboxylic acid], the IC50 (human LPA1) amounted to 62 nM.
Consider `CCC1(N(C)C(=O)OCc2c(-c3ccc(O[C@H]4CCC[C@H](C(=O)O)C4)c(C)n3)nnn2C)CCC1` [Example 133, (1S,3S)-3-((6-(5-((((1-ethylcyclobutyl)(methyl)carbamoyl)oxy)methyl)-1-methyl-1H-1,2,3-triazol-4-yl)-2-methylpyridin-3-yl)oxy)cyclohexane-1-carboxylic acid], for which the IC50 turned out to be 174 nM.
Consider `CC(C)=CCN(C)C(=O)OCc1c(-c2ccc(O[C@H]3CCC[C@H](C(=O)O)C3)c(C)n2)nnn1C` [Example 177, (1S,3S)-3-((2-methyl-6-(1-methyl-5-(((methyl(3-methylbut-2-en-1-yl)carbamoyl)oxy)methyl)-1H-1,2,3-triazol-4-yl)pyridin-3-yl)oxy)cyclohexane-1-carboxylic acid], for which the IC50 (human LPA1) turned out to be 21 nM.
As to `Cc1nc(-c2nnn(C)c2COC(=O)N(C)C[C@@H]2C[C@H]2C)ccc1O[C@H]1CCC[C@H](C(=O)O)C1` [Example 257, (1S,3S)-3-((2-methyl-6-(1-methyl-5-(((methyl(((1R,2R)-2-methylcyclopropyl)methyl)carbamoyl)oxy)methyl)-1H-1,2,3-triazol-4-yl)pyridin-3-yl)oxy)cyclohexane-1-carboxylic Acid], under setting [1], the IC50 is 18 nM.
On to `Cc1nc(-c2nnn(C)c2COC(=O)N2CCC(CC(C)C)C2)ccc1O[C@H]1CCC[C@H](C(=O)O)C1` (mixture of isomers) [Example 151, (1S,3S)-3-((6-(5-(((3-isobutylpyrrolidine-1-carbonyl)oxy)methyl)-1-methyl-1H-1,2,3-triazol-4-yl)-2-methylpyridin-3-yl)oxy)cyclohexane-1-carboxylic acid], for which the IC50 was found to be 101 nM.
On to `CCCC(C)N(C)C(=O)OCc1c(-c2ccc(O[C@H]3CCC[C@H](C(=O)O)C3)cn2)nnn1C` (mixture of isomers) [Example 24, (1S,3S)-3-((6-(1-methyl-5-(((methyl(pentan-2-yl)carbamoyl)oxy)methyl)-1H-1,2,3-triazol-4-yl)pyridin-3-yl)oxy)cyclohexane-1-carboxylic acid], for which the IC50 amounted to 47 nM.
`CCCC(C)(C)N(C)C(=O)OCc1c(-c2ccc(O[C@H]3CCC[C@H](C(=O)O)C3)cc2)nnn1C` [Example 10, (1S,3S)-3-(4-(1-Methyl-5-(((methyl(2-methylpentan-2-yl)carbamoyl)oxy)methyl)-1H-1,2,3-triazol-4-yl)phenoxy)cyclohexanecarboxylic Acid]: the IC50 under setting [1] worked out at 23 nM.
In the case of `Cc1nc(-c2nnn(C)c2COC(=O)N2CC3(CCC3)C2)ccc1O[C@H]1CCC[C@H](C(=O)O)C1` [Example 134, (1S,3S)-3-((6-(5-(((2-azaspiro[3.3]heptane-2-carbonyl)oxy)methyl)-1-methyl-1H-1,2,3-triazol-4-yl)-2-methylpyridin-3-yl)oxy)cyclohexane-1-carboxylic acid], the IC50 is 76 nM.
